For the experiment, the system named is acute panic attacks in patients with panic disorder. The experiment can be described thus: Double-blind, randomized, placebo-controlled clinical trial of alprazolam delivered by inhalation; panic recorded with patient experience diary (PED). The experiment is classed as in vivo. Conditions: for mean peak panic severity / mean panic severity at 12 minutes: 11-point visual analogue scale; for mean panic severity at 12 minutes: 12 minutes following use of the inhaler. The procedure:
To determine the efficacy of alprazolam delivered by inhalation in the treatment of acute panic attacks, a clinical trial is conducted. The objectives of the trial are to determine the effectiveness of alprazolam delivered by inhalation at the time of onset of panic symptoms in decreasing the duration and/or severity of acute panic attacks in patients with panic disorder. The duration and severity of acute panic symptoms are measured using a patient experience diary (PED) for the real time assessment of severity of panic attacks. Patients are recruited for the study by posting in various public locations and medical clinics advertisements seeking patients who experience 2 or more panic attacks per week for participation in the study. To enroll patients who have not previously been treated for panic, the advertisement may include a description of panic symptoms, so that patients who experience panic attacks without being aware that such attacks constitute a medical condition are encouraged to volunteer.
The overall study design is a double-blind, randomized, placebo-controlled clinical trial. Patients 18-65 years of age reporting at least 2 panic attacks per week, without history of psychotic disorders, substance abuse disorders, dementia, or severe or life-threatening medical disorders such as serious heart or lung disease, eligible for the study. Patients not currently on medication for panic disorder, as well as patients currently using a stable dose of selective serotonin reuptake inhibitor (SSRI) the treatment of panic disorder are eligible for the study, as are patients currently taking alprazolam or other benzodiazepines on a PRN basis, if the patients agree not to use such drugs during the study period. Patients using chronic benzodiazepines or other sedative hypnotics for the treatment of panic disorder are excluded from the study, as are patients using psychotropic medications other than SSRIs or unstable SSRI doses. Eligible patients are enrolled in the study after being explained the risks and benefits of the study and signing informed consent.
The patients are then trained in use of the PED described in Examples 1 and 2 above, set to an every 3 minute prompting interval. After being trained in use of the PED, the patients then take the PED home for 3 weeks of use. During these 3 weeks, patients must record at least one panic attack per week in the diary of duration greater than 12 minutes (time from initial diary entry until the patient answers “not at all” to the item regarding the severity of their panic symptoms right now) to proceed to the randomization point in the study. Patients recording less than one panic attack per week, only very brief (less than 12 minute duration panic attacks), or having difficulty using the diary are dropped from the study. At this point, continuing patients are randomized to receive placebo inhaler, inhaler dispensing alprazolam 0.25 mg as an aerosol having an approximately 2 μm mass median aerodynamic diameter (MMAD), or inhaler dispensing alprazolam 0.5 mg as an aerosol having an approximately 2 μm MMAD. Patients are given four identical inhalers each, and instructed to use the inhalers at the time of their next 4 panic attacks (only 1 inhaler per attack). In particular, the patients are instructed to start the PED at the initiation of panic symptoms before taking their medication, to take the medication when prompted by the PED, and then to record the course of the panic attack after taking the medication as prompted by the PED.
Data from the 4 panic attacks during which the inhaler is used as panic treatment are recorded in the PED and transmitted to a central data storage site. The data is analyzed after each patient records 4 panic attacks, or after 8 weeks passes from the time the patient received the inhalers. […]

Take `Cc1nnc2n1-c1ccc(Cl)cc1C(c1ccccc1)=NC2` [alprazolam, 8-chloro-1-methyl-6-phenyl-4H-[1,2,4]triazolo[4,3-α] [1,4]benzodiazepine]: the “mean peak panic severity” value is reported as 6 (alprazolam 0.25 mg by inhaler) and 6 (alprazolam 0.5 mg by inhaler). In addition, the “mean panic severity at 12 minutes” value by setting is: (alprazolam 0.25 mg by inhaler) 3 out of 10; (alprazolam 0.5 mg by inhaler) 1.5 out of 10. In addition, the “mean duration of panic” value by setting is: (patients receiving alprazolam 0.25 mg by inhaler (aerosol, approx. 2 μm MMAD) at onset of panic attack) 20 min; (patients receiving alprazolam 0.5 mg by inhaler (aerosol, approx. 2 μm MMAD) at onset of panic attack) 10 min.

The values are drawn from patent publication US20050131739A1, “Methods for monitoring severity of panic attacks and other rapidly evolving medical events in real time” (Alexza Molecular Delivery Corporation, priority 2003, published 2005).
